Reference: BindingDB's records for doi:10.1021/jm040129+ (The Johns Hopkins University, 2004)

Molecular target: T1, 1,25-dihydroxyvitamin D(3) 24-hydroxylase, mitochondrial (Homo sapiens, UniProt Q07973)
T1 sequence (Q07973 whole entry): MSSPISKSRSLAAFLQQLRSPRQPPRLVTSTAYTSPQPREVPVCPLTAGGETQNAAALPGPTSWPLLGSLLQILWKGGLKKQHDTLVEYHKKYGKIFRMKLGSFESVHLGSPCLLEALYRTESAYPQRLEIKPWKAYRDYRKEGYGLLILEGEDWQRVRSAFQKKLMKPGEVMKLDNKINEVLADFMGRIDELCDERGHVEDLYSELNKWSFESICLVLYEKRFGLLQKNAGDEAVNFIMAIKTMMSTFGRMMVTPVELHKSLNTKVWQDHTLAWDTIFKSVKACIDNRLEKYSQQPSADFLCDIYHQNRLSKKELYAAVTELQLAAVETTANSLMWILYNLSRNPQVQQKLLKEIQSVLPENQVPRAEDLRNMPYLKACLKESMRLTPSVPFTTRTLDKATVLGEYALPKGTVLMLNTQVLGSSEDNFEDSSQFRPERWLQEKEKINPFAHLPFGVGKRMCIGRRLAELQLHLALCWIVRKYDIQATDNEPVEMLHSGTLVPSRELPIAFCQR
Experiment: Inhibition of human CYP24 hydroxylase expressed in V79 cells

- IC50: > 1000 nM
SMILES: C=C1/C(=C\C=C2/CCC[C@]3(C)[C@@H](C(C)=CC(F)=S(N)(=O)c4ccccc4)CC[C@@H]23)C[C@@H](O)C[C@@H]1O (stereo partly specified)
